Results taken from US11746103B2, “ALK-5 inhibitors and uses thereof” (Sumitomo Pharma Oncology, Inc., priority 2020, dated 2023).
“Also recorded” adds a separate entry of the source.

Key:
[1] = Longitudinal PK/PD analysis in A549 xenograft mouse model (plasma and tumor PK); format: in vivo; conditions: 75 mg/kg single oral dose
Procedure: In this study, p-SMAD2 (Ser465/Ser467) and a housekeeping gene (GAPDH) were measured at six timepoints from zero (established using vehicle-treated animals) up to twenty-four hours post dose for a single drug dose of seventy-five milligrams per kilogram per subject (three subjects per dosing group).
For this study, xenografts were prepared and implanted in mice as follows. At five weeks of age, female athymic nude mice (purchased from Charles River) were injected with approximately 3.2 million A549 cells (ATCC, CCL-185). Cells were harvested and resuspended in plain RPMI media (no phenol red added) and Matrigel (Corning 356237) at a one-to-one ratio, and two hundred-microliters of the cell suspension were injected into the right hind flank of each mouse. Tumors were measured every three days by caliper, and as tumors reached an average of ninety millimeters cubed, mice were randomized in groups of three. Each of the test compounds (Ex-10 and Ex-11) was resuspended in 1-methyl-2-pyrrolidinone (Sigma, 494496) (10%) plus 20% Solutol (Sigma 42966) in water (90%). The drug suspensions were sonicated for fifteen minutes to generate a fine particle suspension before being given to the test subjects. Subjects were dosed (per oral gavage) with the suspension. A vehicle control group with three mice was used to establish the baseline and timepoint zero of phospho-SMAD-2 in the tumor xenograft. The test compounds were administered to the respective subject groups at seventy-five milligrams per kilogram. Samples were obtained post administration of test compounds at 20 minutes, one hour, two hours, four hours, and twenty-four hours. Tumors were harvested, snap frozen and stored at negative eighty degrees Celsius until further processing. Plasma was collected from all animals by collecting whole blood via cardiac puncture, followed by centrifugation in tubes containing EDTA (BD, microtainer tubes, 365974). A group of three mice receiving vehicle only served as the zero timepoint for both drug groups. The phospho-SMAD-2 levels were determined using the Bio-Plex Pro™ Phospho-Smad2 (Ser465/Ser467) Set (BioRad 171V50019M). The phospho-SMAD-2 levels were normalized to GAPDH (MILLIPLEX MAP GAPDH Total Magnetic Bead MAPmate™, Millipore 46-667MAG) levels from each sample. All analytes were analyzed in a multiplex fashion with the Bio-Plex Pro Cell Signaling Reagent Kit (BioRad 171304006M). Frozen tumor samples (fifteen to thirty milligrams) were lysed in 100 μl lysis buffer, processed in a bead mill tube, and centrifuged. The resulting lysate was used at 1:50 dilution for the assay according to the manufacturer's instructions. Bead suspension was analyzed using the Luminex system (MAGPIX).

[2] = test system: EMT6 tumors; test: EMT6 syngeneic TNBC model
Procedure: The objective of this study was to evaluate preclinically the in vivo therapeutic efficacy of combining EX-11 with anti-PD-L1 and/or anti-PD-1 therapy for the treatment of EMT6 tumors orthotopically implanted in the mammary fat pad of female Balb/C mice.
Balb/C mice (aged 7-9 weeks) were inoculated orthotopically in the right mammary fat pad with EMT6 breast cancer cells (2.5×10^5) in 0.1 ml of PBS. Tumor measurements were performed via digital calipers. Once the mean tumor size reached approximately 85 mm^3 (day 11), 120 mice were randomized to 8 treatment arms (15 mice per arm).
The anti-PD-L1 inhibitor used in this study was a product of BioXcell (Cat #: BE0101, Clone #: 10F.9G2). The vehicle for the anti-PD-L1 inhibitor was PBS. The anti-PD-1 inhibitor used in this study was a product of BioXcell (Cat #: BE0146, Clone #: RMP1-14). The vehicle for the anti-PD-1 inhibitor was PBS. These inhibitors were injected intraperitoneally (i.p.), bi-weekly (BIW) for 3 weeks. The vehicle for EX-11 was NMP (10%)+20% Solutol in WFI (Water for Injection) (90%). The vehicle used for EX-11 was also used for the “Vehicle” arm of the study. EX-11 and the vehicle were delivered via oral gavage (p.o.), bi-daily (BID) for 21 days.
Body weights and tumor volumes were measured twice per week. Tumor volumes were measured in two dimensions using a caliper, and the volume was expressed in mm^3 using the formula: V=(L×W×W)/2, where V is tumor volume, L is tumor length (the longest tumor dimension) and W is tumor width (the longest tumor dimension perpendicular to L). Tumor Growth Inhibition (TGI) reported was TGI at the final study day, and is expressed as Mean % Δ Inhibition and was calculated using the following formula: [(C−C0)−(T−T0)/(C−C0)]*100%, where C refers to the tumor volume of the vehicle on the final study day, C0 to the tumor volume of the vehicle on the first day of dosing, T to the tumor volume of the treatment on a specific day of dosing and T0 to the tumor volume of the treatment group on the first day of dosing.
The first phase of the study was the dosing phase and was terminated at day 21, where 3 animals were sacrificed, and plasma and tumor samples were collected for biomarker analysis. The remaining 12 animals were monitored without dosing to determine mean survival.

[3] = test system: EMT6 tumors; test: Immunohistochemistry (CD31, CD45) of EMT6 tumors; format: in vivo, mouse
Text: EX-11 is an ALK5 inhibitor that has been proposed to affect multiple processes in the tumor microenvironment through downregulation of TGF-β signaling, including vasculature remodeling and leukocyte infiltration. The objective of this study was to compare the levels of CD31 and CD45, subject to different treatment conditions in 4T1, EMT6, and S91 tumors. CD31 is an established marker of vascular differentiation, and CD45 is an established marker of leukocytes.
For IHC analyses, tumors from three syngeneic models of cancer were used: • 1) Example L: 4T1 (triple-negative breast cancer [TNBC]); Balb/c mice • 2) Example K: EMT6 (TNBC); Balb/C mice • 3) Example M: S91 (melanoma); DBA/2 mice
Tumors were fixed in formalin for 48 hours, then stored in […] prior to paraffin embedding. Embedded blocks were sectioned at […] and placed on glass slides for IHC staining.
Leica Biosystems Bond Software and Leica Bond Rx Research Stainer were used per protocol to stain tissue sections. […] Images were manually scored by a pathologist, blinded to treatment information. […] CD45 was scored by calculating the number of CD45-positive cells divided by the total number of viable nucleated cells within the whole tumor region(s). CD31 density was scored by calculating the total number of CD31 positive vessels divided by the whole tumor area (mm^2).

[4] = test system: ES-2-luc cells; test: ES-2 survival study (ovarian cancer xenograft); format: in vivo, mouse; conditions: 150 mg/Kg twice a day, P.O.
Text: Ovarian cancer is still associated with poor prognosis and remains among the leading causes of oncology-related deaths in females. High recurrence rates, resistance to chemotherapy and meager outcome highlight the need for improved therapies that stem from understanding the complex and multifactorial etiology of ovarian malignancies. TGF-01 signaling within tumor microenvironment regulates important steps in ovarian cancer progression such as epithelial to mesenchymal transition, dissemination, and metastasis. Inhibition of TGF-01 signaling pathway has shown a potential as a pharmaceutical target in ovarian malignancies. ES-2 ovarian cancer mouse xenograft model was used to test efficacy of EX-11 in ovarian cancer, as measured by improvement in survival.
Sixteen-week-old female athymic nude mice were injected with two million ES-2-luc cells. […]
Mortality was recorded for animals found dead in the cage, and for the animals sacrificed based on humane end point based on main three criteria—loss of mobility and response, wasting with pronounced ascites fluid buildup, and palpable drop in body temperature (animals were assessed as cold to touch when handled in gloves).
On study day 22, the remaining surviving animals in the vehicle group were determined moribund, and the study was terminated based on humane end point criteria. […]

SMILES | drug concentration in plasma and tumor over time [1] | drug in plasma and tumor at 24 hours post drug administration [1] | tumor growth inhibition (TGI) compared to vehicle ([2]; EX-11 at 75 mg/kg PO BID x 21 days) | tumor growth inhibition (TGI) compared to vehicle ([2]; EX-11 at 150 mg/kg PO BID x 21 days) [%] | Mean survival ([2]; EX-11 at 150 mpk where given) [days] | tumor pliability ([2]; all groups receiving EX-11 vs vehicle or checkpoint antibody single agent) | CD31 staining (blood vessel density) [3] | CD45 (percentage of CD45+ cells) ([3]; vs anti-PD-1 and vehicle groups) | overall survival compared with vehicle-treated animals [4] | time of maximum drug concentration in plasma and tumor [1]
Cc1cccc2c(Nc3ccnc(Nc4ccc(N5CCOCC5)cc4)n3)cnnc12 [EX-10, N4-(8-methylcinnolin-4-yl)-N2-(4-morpholino-phenyl)-pyrimidine-2,4-diamine] | spiked 20 minutes to 1-hour post drug administration and stayed high up to 4 hours post drug administration | cleared out of the system completely |  |  |  |  |  |  |  | 
Cc1cccc2c(Nc3ccnc(Nc4cccc(N5CCOCC5)c4)n3)cnnc12 [EX-11, N4-(8-methylcinnolin-4-yl)-N2-(3-morpholinophenyl)pyrimidine-2,4-diamine] |  | cleared out of the system | did not result in significant TGI | 37 | 25 | substantially more pliable | no difference in CD31 staining | increased | significantly increased; also recorded: significantly improved | around 4 hours
